Changes are numbered by the printed parent chain. “And” between values parts separate entries of the source, which are not always exact repeats. Identical values can stand only once. Like-named read-outs stand apart in the source and are kept apart here.
Experiments:
Assay type in all cases: cell-based
[1] = molecular target: T1, hTA1 C5S (Homo sapiens, UniProt Q96RJ0, C5S); assay: GloSensor cAMP accumulation assay, C5S mutant; conditions: for C5S - Normalized Luminescence Counts (N=2): log[Compound], single wells
T1 construct: expressed in transfected cells; host or cells: HEK293T
T1 sequence (Q96RJ0 1-339 C5S): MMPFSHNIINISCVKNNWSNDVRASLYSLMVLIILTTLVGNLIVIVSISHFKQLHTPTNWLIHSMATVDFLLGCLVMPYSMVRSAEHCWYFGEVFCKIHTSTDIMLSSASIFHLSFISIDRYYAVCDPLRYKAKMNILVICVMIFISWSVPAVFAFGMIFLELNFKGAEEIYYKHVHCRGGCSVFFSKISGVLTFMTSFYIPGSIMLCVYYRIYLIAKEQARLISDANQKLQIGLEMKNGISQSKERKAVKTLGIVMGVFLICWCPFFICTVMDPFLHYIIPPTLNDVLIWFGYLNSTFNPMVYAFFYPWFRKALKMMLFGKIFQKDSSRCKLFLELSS

[2] = molecular target: T2, hTA1 T271N (Homo sapiens, UniProt Q96RJ0, T271N); assay: GloSensor cAMP accumulation assay, T271N mutant
T2 construct: expressed in transfected cells; host or cells: HEK293T
T2 sequence (Q96RJ0 1-339 T271N): T1 sequence (Q96RJ0 1-339 C5S) with S5C, T271N

[3] = molecular target: T3, hTA1 R83H (Homo sapiens, UniProt Q96RJ0, R83H); assay: GloSensor cAMP accumulation assay, R83H mutant;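 also: cells transiently co-expressing hTA1 and a cAMP GloSensor, luminescence read 30 min after agonist addition at room temperature, concentration–response fitted by non-linear regression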
T3 construct: expressed in transfected cells; host or cells: HEK293T
T3 sequence (Q96RJ0 1-339 R83H): T1 sequence (Q96RJ0 1-339 C5S) with S5C, R83H

[4] = molecular target: T4, hTA1 V184P (Homo sapiens, UniProt Q96RJ0, V184P); assay: GloSensor cAMP accumulation assay, V184P mutant; conditions: for cAMP accumulation response, single replicate values (source data, Supplementary Figure 5): hTA1 V184P (N=2), log[Compound]
T4 construct: expressed in transfected cells; host or cells: HEK293T
T4 sequence (Q96RJ0 1-339 V184P): T1 sequence (Q96RJ0 1-339 C5S) with S5C, V184P

`CCC(CC1COC(N)=N1)c1ccccc1` (centres unmarked) [Ro5256390] was tested, and the EC50 ([1]; EC50, C5S, n=2) was 9.93 nM, the “Emax values, Mean” value ([1]; hTA1 C5S, β-PEA = 100, mean of 3 replicates, one line per independent experiment) was 93.1178 and the “C5S - Normalized Luminescence Counts (N=2)” value ([1]; M = -5) was 103.833 and 96.8115 and 93.515 and 109.052 and 73.4937 and 115.059. For the same molecule, the “C5S - Normalized Luminescence Counts (N=2)” value ([1]; M = -5.522) was 100.921 and 96.3599 and 95.6826 and 93.2407 and 55.8872 and 98.4881, the “C5S - Normalized Luminescence Counts (N=2)” value ([1]; M = -6) was 105.12 and 94.0343 and 79.8326 and 75.5651 and 84.541 and 101.802 and the “C5S - Normalized Luminescence Counts (N=2)” value ([1]; M = -6.522) was 95.389 and 104.217 and 100.289 and 100.214 and 115.957 and 88.6146. The “C5S - Normalized Luminescence Counts (N=2)” value ([1]; M = -7) was 82.6549 and 83.4903 and 89.3381 and 93.6549 and 93.9311 and 89.0289, the “C5S - Normalized Luminescence Counts (N=2)” value ([1]; M = -7.522) was 62.4022 and 62.4925 and 74.2106 and 83.9196 and 70.5248 and 74.2532 and the “C5S - Normalized Luminescence Counts (N=2)” value ([1]; M = -8) was 36.7307 and 40.4787 and 36.4823 and 59.3395 and 54.6444 and 53.6087. For the same molecule, the “C5S - Normalized Luminescence Counts (N=2)” value ([1]; M = -9) was 8.372 and 7.4241 and 6.656 and 9.834 and 7.901 and 11.353, the EC50 ([1]; pEC50 values, Mean, hTA1 C5S, mean of 3 replicates, one line per independent experiment) was 15.2 nM and 6.48 nM and the EC50 ([1]; pEC50 ± SEM, C5S, n=2) was 10 nM. For the same molecule, the Emax ([1]; read-out: Emax values, Mean, hTA1 C5S, β-PEA = 100, mean of 3 replicates, one line per independent experiment) was 97.6%, the Emax ([1]; read-out: Span ± SEM (Emax normalized to β-PEA), C5S, n=2) was 95.4 ± 2.26% and the EC50 ([2]; EC50, T271N, n=2) was 12.6 nM. The “ΔpEC50 values (each mutant value - WT average), Mean” value ([2]; T271N mutant minus WT average, Figure 5B) was -0.2524 and -0.4929, the “Emax values, Mean” value ([2]; T271N mutant, Figure 5B, β-PEA = 100, each row one independent experiment (3 replicates)) was 121.264 and 99.7038 and the EC50 ([2]; pEC50 values, Mean, T271N mutant, Figure 5B, each row one independent experiment (3 replicates)) was 9.54 nM and 16.6 nM. For the same molecule, the Emax ([2]; read-out: Span ± SEM (Emax normalized to β-PEA), T271N, n=2) was 110%, the EC50 ([3]; EC50, R83H, n=2) was 5.19 nM and the “ΔEmax values (each mutant value - WT average)” value ([3]; R83H mutant minus WT average) was -44.6015. The “ΔpEC50 values (each mutant value - WT average)” value ([3]; R83H mutant minus WT average) was -0.01027 and 0.0342, the “Emax values, Mean” value ([3]; R83H mutant, β-PEA = 100, each line an independent experiment, 3 replicates) was 58.7027 and 38.4174 and the EC50 ([3]; pEC50 values (Mean), R83H mutant, each line an independent experiment, 3 replicates) was 5.46 nM and 4.93 nM. The Emax ([3]; read-out: Span ± SEM (Emax normalized to β-PEA), R83H, n=2) was 48.6 ± 10.1%, the “cAMP accumulation response, single replicate values (source data, Supplementary Figure 5)” value (shortened to “cAMP accumulation response”) ([4]; M = -5) was 85.3904 and 101.684 and 66.3809 and 100.697 and 92.817 and 97.6917 and the “cAMP accumulation response” value ([4]; M = -5.522) was 66.0899 and 55.7123 and 71.6182 and 88.7852 and 51.5463 and 90.3979. For the same molecule, the “cAMP accumulation response” value ([4]; M = -6) was 83.0627 and 77.3404 and 73.6549 and 87.3191 and 55.1749 and 91.0943, the “cAMP accumulation response” value ([4]; M = -6.522) was 79.7651 and 75.3037 and 85.0024 and 81.1248 and 49.1639 and 85.8896 and the “cAMP accumulation response” value ([4]; M = -7) was 89.6578 and 72.685 and 93.7313 and 87.2824 and 64.0448 and 74.7473. The “cAMP accumulation response” value ([4]; M = -7.522) was 94.3132 and 66.4779 and 74.3338 and 84.4969 and 64.0814 and 78.046, the “cAMP accumulation response” value ([4]; M = -8) was 62.0164 and 54.6454 and 40.6793 and 78.3026 and 66.3539 and 77.7161 and the “cAMP accumulation response” value ([4]; M = -8.522) was 37.1877 and 24.6764 and 37.2847 and 29.115 and 34.8328 and 41.87. For the same molecule, the “cAMP accumulation response” value ([4]; M = -9) was 15.9475 and 18.9541 and 11.3891 and 32.8169 and 25.9629 and 26.2194, the “cAMP accumulation response” value ([4]; M = -9.522) was 4.018 and 3.436 and 4.212 and 11.3752 and 7.6 and 9.799 and the “cAMP accumulation response” value ([4]; M = -10) was 0.7205 and 0.9145 and 0.5265 and 3.678 and 2.945 and 4.778. The “cAMP accumulation response” value ([4]; M = -10.522) was -0.3463 and -0.9283 and 0.2356 and 0.1229 and 0.08625 and 0.5627, the “cAMP accumulation response” value ([4]; M = -11) was -1.316 (2×) and -1.4132 and 1.516 and -0.5368 and 1.039 and the “cAMP accumulation response” value ([4]; M = -11.522) was -1.51 and -1.219 and -1.704 and 2.615 and 1.516 and 1.552. For the same molecule, the “cAMP accumulation response” value ([4]; M = -12) was -1.316 and -1.51 and -1.801 and 15.6269 and 16.9097 and 12.5114, the “cAMP accumulation response” value ([4]; M = -12.522) was -1.4132 and -1.51 and -0.9283 and 2.505 and 1.149 and 1.736 and the “ΔpEC50 values (each mutant value - WT average), Mean” value ([4]; hTA1 V184P mutant minus WT average) was 0.1338 and 0.2823. For the same molecule, the “Emax values, Mean” value ([4]; hTA1 V184P mutant, β-PEA set to 100, each grid row a separate experiment, 3 replicates) was 78.2024, the EC50 ([4]; pEC50 values (Mean), hTA1 V184P mutant, Figure 3B source data, each grid row a separate experiment, 3 replicates) was 3.92 nM and 2.79 nM and the EC50 ([4]; pEC50 ± SEM, V184P, n=2) was 3.31 nM. The Emax ([4]; read-out: Emax values (Mean), hTA1 V184P mutant, β-PEA set to 100, each grid row a separate experiment, 3 replicates) was 81.5% and the Emax ([4]; read-out: Span ± SEM (Emax normalized to β-PEA), V184P, n=2) was 79.8 ± 1.63%.

— publication PMC10762035, “Molecular basis of human trace amine-associated receptor 1 activation” (Nature Communications, 2024)
